Measurements reported in ChEMBL document CHEMBL5331067, “Disubstituted pyrimidine-5-carboxamide derivatives as novel HIV-1 NNRTIs: Crystallographic overlay-based molecular design, synthesis, and biological evaluation” (Eur J Med Chem, 2023).
pEC50, pIC50: −log10 of the molar value.

Key:
[1] = system: Human immunodeficiency virus 1; assay: Antiviral activity against HIV-1 IIIB infected in human MT4 cells assessed as reduction in virus induced cytopathic effect incubated for 5 days by MTT assay; type: functional, organism-based; conditions: Human immunodeficiency virus 1, IIIB, MT4, 120 h
[2] = Selectivity index, ratio of CC50 for cytotoxicity against human MT4 cells assessed as reduction in cell viability to EC50 for antiviral activity against HIV-1 IIIB infected in human MT4 cells assessed as reduction in virus induced cytopathic effect; type: toxicity, cell-based; conditions: read-out: Ratio CC50/EC50
[3] = Cytotoxicity against human MT4 cells assessed as cell growth inhibition incubated for 5 days by MTT assay; type: toxicity, cell-based; conditions: time 5 day
[4] = system: Human immunodeficiency virus 1; assay: Antiviral activity against HIV-1 RES056 infected in human MT4 cells assessed as reduction in virus induced cytopathic effect incubated for 5 days by MTT assay; type: functional, organism-based; conditions: Human immunodeficiency virus 1, RES056, MT4, 120 h
[5] = Fold resistance, ratio of EC50 for antiviral activity against NNRTI-resistant HIV-1 harboring F227L/V106A double mutant infected in human MT4 cells assessed as virus-induced cytopathicity to EC50 for antiviral activity against HIV-1 RES056 infected in human MT4 cells assessed as reduction in virus induced cytopathic effect; type: functional
[6] = Selectivity index, ratio of CC50 for cytotoxicity against human MT4 cells assessed as reduction in cell viability to EC50 for antiviral activity against NNRTI-resistant HIV-1 harboring L100I mutant infected in human MT4 cells; type: toxicity, cell-based; conditions: read-out: Ratio CC50/EC50
[7] = Selectivity index, ratio of CC50 for cytotoxicity against human MT4 cells assessed as reduction in cell viability to EC50 for antiviral activity against HIV-1 RES056 infected in human MT4 cells assessed as reduction in virus induced cytopathic effect; type: toxicity, cell-based; conditions: read-out: Ratio CC50/EC50
[8] = system: Human immunodeficiency virus 1; assay: Antiviral activity against NNRTI-resistant HIV-1 harboring Y188L mutant infected in human MT4 cells assessed as virus-induced cytopathicity incubated for 5 days by MTT assay; type: functional, organism-based; conditions: Human immunodeficiency virus 1, MT4, 120 h
[9] = Selectivity index, ratio of CC50 for cytotoxicity against human MT4 cells assessed as reduction in cell viability to EC50 for antiviral activity against NNRTI-resistant HIV-1 harboring K103N mutant infected in human MT4 cells; type: toxicity, cell-based; conditions: read-out: Ratio CC50/EC50
[10] = Selectivity index, ratio of CC50 for cytotoxicity against human MT4 cells assessed as reduction in cell viability to EC50 for antiviral activity against NNRTI-resistant HIV-1 harboring Y181C mutant infected in human MT4 cells; type: toxicity, cell-based; conditions: read-out: Ratio CC50/EC50
[11] = system: Human immunodeficiency virus 1; assay: Antiviral activity against NNRTI-resistant HIV-1 harboring L100I mutant infected in human MT4 cells assessed as virus-induced cytopathicity incubated for 5 days by MTT assay; type: functional, organism-based; conditions: Human immunodeficiency virus 1, MT4, 120 h
[12] = system: Human immunodeficiency virus 1; assay: Antiviral activity against NNRTI-resistant HIV-1 harboring E138K mutant infected in human MT4 cells assessed as virus-induced cytopathicity incubated for 5 days by MTT assay; type: functional, organism-based; conditions: Human immunodeficiency virus 1, MT4, 120 h
[13] = Fold resistance, ratio of EC50 for antiviral activity against NNRTI-resistant HIV-1 harboring L100I mutant infected in human MT4 cells assessed as virus-induced cytopathicity to EC50 for antiviral activity against HIV-1 IIIB infected in human MT4 cells assessed as reduction in virus induced cytopathic effect; type: functional
[14] = molecular target: Human immunodeficiency virus type 1 reverse transcriptase (Human immunodeficiency virus 1, UniProt Q72547); assay: Inhibition of wild type HIV-1 reverse transcriptase assessed as reduction of biotin-dUTP incorporation into […] using ABTS as substrate incubated for 1 hrs by ELISA analysis
[15] = Fold resistance, ratio of EC50 for antiviral activity against NNRTI-resistant HIV-1 harboring K103N mutant infected in human MT4 cells assessed as virus-induced cytopathicity to EC50 for antiviral activity against HIV-1 IIIB infected in human MT4 cells assessed as reduction in virus induced cytopathic effect; type: functional
[16] = system: Human immunodeficiency virus 1; assay: Antiviral activity against NNRTI-resistant HIV-1 harboring F227L/V106A double mutant infected in human MT4 cells assessed as virus-induced cytopathicity incubated for 5 days by MTT assay; type: functional, organism-based; conditions: Human immunodeficiency virus 1, MT4, 120 h
[17] = Fold resistance, ratio of EC50 for antiviral activity against NNRTI-resistant HIV-1 harboring F227L/V106A double mutant infected in human MT4 cells assessed as virus-induced cytopathicity to EC50 for antiviral activity against HIV-1 IIIB infected in human MT4 cells assessed as reduction in virus induced cytopathic effect; type: functional
[18] = Selectivity index, ratio of CC50 for cytotoxicity against human MT4 cells assessed as reduction in cell viability to EC50 for antiviral activity against NNRTI-resistant HIV-1 harboring F227L/V106A double mutant infected in human MT4 cells; type: toxicity, cell-based; conditions: read-out: Ratio CC50/EC50
[19] = Selectivity index, ratio of CC50 for cytotoxicity against human MT4 cells assessed as reduction in cell viability to EC50 for antiviral activity against NNRTI-resistant HIV-1 harboring E138K mutant infected in human MT4 cells; type: toxicity, cell-based; conditions: read-out: Ratio CC50/EC50
[20] = system: Human immunodeficiency virus 1; assay: Antiviral activity against NNRTI-resistant HIV-1 harboring K103N mutant infected in human MT4 cells assessed as virus-induced cytopathicity incubated for 5 days by MTT assay; type: functional, organism-based; conditions: Human immunodeficiency virus 1, MT4, 120 h
[21] = Fold resistance, ratio of EC50 for antiviral activity against NNRTI-resistant HIV-1 harboring Y181C mutant infected in human MT4 cells assessed as virus-induced cytopathicity to EC50 for antiviral activity against HIV-1 IIIB infected in human MT4 cells assessed as reduction in virus induced cytopathic effect; type: functional
[22] = Fold resistance, ratio of EC50 for antiviral activity against NNRTI-resistant HIV-1 harboring E138K mutant infected in human MT4 cells assessed as virus-induced cytopathicity to EC50 for antiviral activity against HIV-1 IIIB infected in human MT4 cells assessed as reduction in virus induced cytopathic effect; type: functional
[23] = Selectivity index, ratio of CC50 for cytotoxicity against human MT4 cells assessed as reduction in cell viability to EC50 for antiviral activity against NNRTI-resistant HIV-1 harboring Y188L mutant infected in human MT4 cells; type: toxicity, cell-based; conditions: read-out: Ratio CC50/EC50
[24] = system: Human immunodeficiency virus 1; assay: Antiviral activity against NNRTI-resistant HIV-1 harboring Y181C mutant infected in human MT4 cells assessed as virus-induced cytopathicity incubated for 5 days by MTT assay; type: functional, organism-based; conditions: Human immunodeficiency virus 1, MT4, 120 h
[25] = Fold resistance, ratio of EC50 for antiviral activity against NNRTI-resistant HIV-1 harboring Y188L mutant infected in human MT4 cells assessed as virus-induced cytopathicity to EC50 for antiviral activity against HIV-1 IIIB infected in human MT4 cells assessed as reduction in virus induced cytopathic effect; type: functional

## Cc1cc(C#N)cc(C)c1Oc1nc(Nc2ccc(CN3CCN(S(C)(=O)=O)CC3)cc2)ncc1C(N)=O
[1]
  pEC50: 5.75
[2]
  selectivity ratio: > 132
[3]
  CC50 at 120 h: > 233000 nM
[4]
  pEC50: < 3.63

## O=C1Nc2ccc(Cl)cc2[C@@](C#CC2CC2)(C(F)(F)F)O1 [EFAVIRENZ]
[3]
  CC50 at 120 h: > 6350 nM

## Cc1cc(C#N)cc(C)c1Oc1nc(NC2CCN(c3cccc(C(N)=O)c3)CC2)ncc1C(N)=O
[1]
  pEC50: 4.36
[2]
  selectivity ratio: > 6
[3]
  CC50 at 120 h: > 257000 nM
[4]
  pEC50: < 3.59

## Cc1cc(C#N)cc(C)c1Oc1nc(NC2CCN(Cc3ccc(C(N)=O)cc3)CC2)ncc1C(N)=O
[5]
  Ratio EC50: 394.1
[6]
  selectivity ratio: > 344
[7]
  selectivity ratio: > 14
[8]
  pEC50: 6.11
[9]
  selectivity ratio: > 5580
[1]
  pEC50: 7.35
[10]
  selectivity ratio: > 876
[11]
  pEC50: 7.14
[12]
  pEC50: 6.42
[13]
  Ratio EC50: 1.6
[2]
  selectivity ratio: > 5560
[14]
  pIC50: 6.80
[3]
  CC50 at 120 h: > 250000 nM
[4]
  pEC50: 4.75
[15]
  Ratio EC50: 1
[16]
  pEC50: 5.34
[17]
  Ratio EC50: 100.3
[18]
  selectivity ratio: > 55
[19]
  selectivity ratio: > 659
[20]
  pEC50: 7.35
[21]
  Ratio EC50: 6.3
[22]
  Ratio EC50: 8.4
[23]
  selectivity ratio: > 324
[24]
  pEC50: 6.54
[25]
  Ratio EC50: 17.1

## Cc1ccnc2c1NC(=O)c1cccnc1N2C1CC1 [NEVIRAPINE]
[1]
  pEC50: 6.82
[12]
  pEC50: 6.77
[3]
  CC50 at 120 h: > 15000 nM
[4]
  pEC50: < 4.82

## Cc1cc(C#N)cc(C)c1Oc1nc(Nc2ccc(CN3CCN(S(N)(=O)=O)CC3)cc2)ncc1C(N)=O
[1]
  pEC50: 5.81
[2]
  selectivity ratio: 112
[3]
  CC50 at 120 h: 173000 nM
[4]
  pEC50: < 3.76

## Cc1cc(C#N)cc(C)c1Oc1nc(NC2CCN(Cc3ccc(S(C)(=O)=O)cc3)CC2)ncc1C(N)=O
[5]
  Ratio EC50: 605.5
[6]
  selectivity ratio: > 221
[7]
  selectivity ratio: > 68
[8]
  pEC50: 7.16
[9]
  selectivity ratio: > 4460
[1]
  pEC50: 8.22
[10]
  selectivity ratio: > 6790
[11]
  pEC50: 7.96
[12]
  pEC50: 6.83
[13]
  Ratio EC50: 1.9
[2]
  selectivity ratio: > 41100
[14]
  pIC50: 6.91
[3]
  CC50 at 120 h: > 234000 nM
[4]
  pEC50: 5.46
[15]
  Ratio EC50: 0.9
[16]
  pEC50: 6.49
[17]
  Ratio EC50: 57.4
[18]
  selectivity ratio: > 716
[19]
  selectivity ratio: > 1560
[20]
  pEC50: 8.30
[21]
  Ratio EC50: 6
[22]
  Ratio EC50: 26.2
[23]
  selectivity ratio: > 3400
[24]
  pEC50: 7.47
[25]
  Ratio EC50: 12.1

## Cc1cc(C#N)cc(C)c1Oc1nc(NC2CCN(c3ccc(NS(N)(=O)=O)cc3)CC2)ncc1C(N)=O
[5]
  Ratio EC50: 4648.8
[6]
  selectivity ratio: 474
[7]
  selectivity ratio: 1
[8]
  pEC50: 6.93
[9]
  selectivity ratio: 4730
[1]
  pEC50: 7.48
[10]
  selectivity ratio: 997
[11]
  pEC50: 6.43
[12]
  pEC50: 6.92
[13]
  Ratio EC50: 11.3
[2]
  selectivity ratio: 5370
[14]
  pIC50: 6.03
[3]
  CC50 at 120 h: 176000 nM
[4]
  pEC50: 3.82
[15]
  Ratio EC50: 1.1
[16]
  pEC50: 6.23
[17]
  Ratio EC50: 17.9
[18]
  selectivity ratio: 301
[19]
  selectivity ratio: 1470
[20]
  pEC50: 7.43
[21]
  Ratio EC50: 5.4
[22]
  Ratio EC50: 3.7
[23]
  selectivity ratio: 1480
[24]
  pEC50: 6.75
[25]
  Ratio EC50: 3.6

## Cc1cc(C#N)cc(C)c1Oc1nc(NC2CCN(Cc3ccc(B(O)O)cc3)CC2)ncc1C(N)=O
[5]
  Ratio EC50: 159.1
[6]
  selectivity ratio: > 187
[7]
  selectivity ratio: > 38
[8]
  pEC50: 6.68
[9]
  selectivity ratio: > 5550
[1]
  pEC50: 7.38
[10]
  selectivity ratio: > 1570
[11]
  pEC50: 6.88
[12]
  pEC50: 6.78
[13]
  Ratio EC50: 3.2
[2]
  selectivity ratio: > 5990
[14]
  pIC50: 5.98
[3]
  CC50 at 120 h: > 250000 nM
[4]
  pEC50: 5.18
[15]
  Ratio EC50: 1.1
[16]
  pEC50: 5.96
[17]
  Ratio EC50: 26.2
[18]
  selectivity ratio: > 229
[19]
  selectivity ratio: > 1520
[20]
  pEC50: 7.35
[21]
  Ratio EC50: 3.8
[22]
  Ratio EC50: 4
[23]
  selectivity ratio: > 1190
[24]
  pEC50: 6.80
[25]
  Ratio EC50: 5

## Cc1cc(C#N)cc(C)c1Oc1nc(Nc2ccc(C#N)nc2)ncc1C(N)=O
[1]
  pEC50: 6.89
[2]
  selectivity ratio: 218
[3]
  CC50 at 120 h: 27900 nM
[4]
  pEC50: < 4.55

## Cc1cc(C#N)cc(C)c1Oc1nc(Nc2ccc(CN3CCNCC3)cc2)ncc1C(N)=O
[1]
  pEC50: 4.87
[2]
  selectivity ratio: > 20
[3]
  CC50 at 120 h: > 273000 nM
[4]
  pEC50: < 3.56

## Cc1cc(C#N)cc(C)c1Oc1nc(NC2CCN(c3cccc(C#N)c3)CC2)ncc1C(N)=O
[1]
  pEC50: 6.56
[2]
  selectivity ratio: 402
[3]
  CC50 at 120 h: 111000 nM
[4]
  pEC50: 4.32

## Cc1cc(C#N)cc(C)c1Oc1nc(Nc2ccc(C#N)cc2)nc(N)c1Br [ETRAVIRINE]
[12]
  pEC50: 8.00
[3]
  CC50 at 120 h: > 4600 nM
[4]
  pEC50: 7.21
